Data on 1 compound can be found in patent US11976062B2, “Benzisoxazole compound” (OSAKA UNIVERSITY, priority 2018, dated 2024).

The experiment concerns the target T1, TRPC3 channel (Homo sapiens, UniProt Q13507).
T1 construct: expressed in transfected cells; host or cells: HEK293
T1 sequence (Q13507 1-921): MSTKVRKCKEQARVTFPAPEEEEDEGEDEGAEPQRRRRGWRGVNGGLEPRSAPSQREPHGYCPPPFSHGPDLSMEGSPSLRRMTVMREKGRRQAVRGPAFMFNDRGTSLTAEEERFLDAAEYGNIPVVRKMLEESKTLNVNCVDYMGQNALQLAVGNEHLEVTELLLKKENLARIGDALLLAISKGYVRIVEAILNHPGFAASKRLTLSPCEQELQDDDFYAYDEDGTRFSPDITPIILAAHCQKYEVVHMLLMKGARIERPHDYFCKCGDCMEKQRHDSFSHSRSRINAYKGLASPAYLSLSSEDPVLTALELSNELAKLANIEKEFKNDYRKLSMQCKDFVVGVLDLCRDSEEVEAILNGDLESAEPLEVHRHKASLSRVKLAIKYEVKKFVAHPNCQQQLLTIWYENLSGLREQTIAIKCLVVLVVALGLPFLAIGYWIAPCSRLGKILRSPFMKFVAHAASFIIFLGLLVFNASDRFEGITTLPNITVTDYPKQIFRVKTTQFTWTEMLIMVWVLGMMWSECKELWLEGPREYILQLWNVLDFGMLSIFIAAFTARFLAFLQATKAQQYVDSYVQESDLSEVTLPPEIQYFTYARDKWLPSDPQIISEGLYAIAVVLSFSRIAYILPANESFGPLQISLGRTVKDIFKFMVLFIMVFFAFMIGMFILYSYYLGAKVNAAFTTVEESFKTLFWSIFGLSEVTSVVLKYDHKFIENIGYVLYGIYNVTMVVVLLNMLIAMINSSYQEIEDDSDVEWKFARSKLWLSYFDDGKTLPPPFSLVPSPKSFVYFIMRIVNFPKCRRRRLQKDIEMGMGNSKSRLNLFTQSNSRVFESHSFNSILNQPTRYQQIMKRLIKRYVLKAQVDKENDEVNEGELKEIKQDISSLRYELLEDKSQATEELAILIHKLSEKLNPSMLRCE
Put plainly: Calcium assay using HEK293 cells transiently expressing TRPC3 channel, carbachol activation (Fura-2). The class given is cell-based. The protocol: A TRPC6 gene was introduced into HEK293 cells (cells derived from human fetal kidney) by lipofection, and the TRPC6 channel was expressed on the cell membrane. Specifically, the plasmid DNA of TRPC6 (pCI-neo; Promega Corporation) was introduced into HEK293 cells using a lipofection reagent, and then cultured at 37° C. for 24 to 48 hours to express the TRPC6 channel on the cell membrane. In the same manner, HEK293 cells into which the TRPC3 gene was introduced were cultured, and the TRPC3 channel was expressed on the cell membrane.
The cultured cells were peeled off with trypsin and seeded on a cover glass again, followed by culturing the cells at 37° C. for 3 hours again. A Fura-2 AM calcium indicator was added to the medium, and the cells were cultured at 37° C. for 30 minutes to allow the cells to incorporate the indicator. For the extracellular solution, a Ca^2+-containing solution and a Ca^2+-free solution were prepared. • Ca^2+-containing solution: 2 mM CaCl2, 132 mM NaCl, 4 mM KCl, 1 mM MgCl2, 5 mM glucose, 5 mM HEPES (pH 7.4) • Ca^2+-free solution: 132 mM NaCl, 4 mM KCl, 1 mM MgCl2, 5 mM glucose, 5 mM HEPES (pH 7.4) […]

Consider `O=C(O)c1cnc(N2CCN(c3noc4cccc(C(F)(F)F)c34)CC2)c(Cl)c1` [Compound 011, 5-chloro-6-(4-(4-(trifluoromethyl)benzo[d]isoxazol-3-yl)piperazin-1-yl) nicotinic acid], for which the “Ca2+ concentration in the cells reached after addition of carbachol” value (TRPC3, FIG. 2, from about 100 nM, control (DMSO) about 350 nM) is listed as “about 180 nM”. For the same compound, the half-inhibitory concentration (IC50) (usually the concentration that inhibits the measured activity by half) (TRPC3-expressing HEK293 cells, carbachol 100 μM, from concentration-response curves, read-out: IC50 for inhibition of the TRPC3 channel) turned out to be 0.7 µM.
